The values that follow come from US9295722B2, “Bacterial glycolipid activation of CD1d-restricted NKT cells” (priority 2005, dated 2016).

Holding throughout (format): cell-based
For test [1], the system named is human NKT cells. Kind of test: human NKT cells co-cultured with PBMC-derived DC, IFN-γ ELISA. As to conditions: blocking with 1 μg/mL anti-CD1d antibodies or control IgG1. The protocol: (§1) Bacterial strains Sphingomonas capsulata (ATCC 14666) and Salmonella typhimurium R71 were grown in Mueller-Hinton Agar. Ehrlichia muris were prepared as described by Ismail N et al., J. Immunol. 172, 1786-1800 (2004), incorporated herein by reference. Bacteria were heat killed by 2-hour exposure to 74° C. and 2.5-5×10^6 cfu equivalent/well were used for in vitro stimulation.
Stimulation assays were performed with whole spleen cells (5×10^5 per 200 μl well) or with purified T cells and antigen presenting cells. T cell populations used in the assays comprised sorted CD1d-Gal-Cer+ mouse spleen cells (5×10^4 per 200 μl well), human peripheral blood lymphocytes (PBL) (5×10^5 per 200 μl well) (obtained after Ficoll centrifugation of heparinized blood) or human NKT cell lines (2.5×10^5 per 200 μl well). […]
(§2) NKT cells were stimulated with heat-killed bacteria as indicated above for 48 hrs in 96 well round bottom plates in RPMI 1640 (Biofluids) supplemented with glutamine, antibiotics, 5×10^−5 M 2-ME and 10% FCS (mouse studies) or 5% AB serum (human studies). Concentrations of mouse and human IFN-γ. in the supernatant were measured at 48 hours using the respective ELISA kits (BD Bioscience, lower detection limit of 12.5 pg/ml).
A general note: An ELISA detects its analyte on a solid surface through an enzyme-linked reagent.

Test [2] has as its system mouse NKT cells. Kind of test: mouse CD1d tetramer-sorted NKT cells co-cultured with bone marrow derived DC, IFN-γ ELISA. As to conditions: co-cultured with CD1+/− or CD1−/− DC; 48 hrs. Here is the method: as §1
Stimulation assays were performed with whole spleen cells (5×10^5 per 200 μl well) or with purified T cells and antigen presenting cells. […]
as §2
Whole spleen cells co-cultured with DC of genotype MyD88^−/−, Trif^lps2/lps2 and MyD88^−/−Trif^lps2/lps2 (lacking one or the two adaptors MyD88 and TRIF for TLR signaling) or CD1^−/− were stimulated for 48 hours with 5×10^6 heat killed Salmonella, Sphingomonas or Ehrlichia. Concentrations of mouse and human IFN-γ. in the supernatant were measured at 48 hours using the respective ELISA kits (BD Bioscience, lower detection limit of 12.5 pg/ml).

In test [3] the test system is mouse NKT cells. Kind of test: fresh purified mouse NKT cells co-cultured with DC pulsed with synthetic glycolipid. As to conditions: for IFN-γ secretion: DC pulsed with 0.001 to 1000 ng/mL glycolipid, 48 hours. Here is the method: (§3) Stimulation assays were performed with whole spleen cells (5×10^5 per 200 μl well) or with purified T cells and antigen presenting cells. T cell populations used in the assays comprised sorted CD1d-Gal-Cer+ mouse spleen cells (5×10^4 per 200 μl well), human peripheral blood lymphocytes (PBL) (5×10^5 per 200 μl well) (obtained after Ficoll centrifugation of heparinized blood) or human NKT cell lines (2.5×10^5 per 200 μl well). Human Vα24 NKT cells were derived from PBL stimulated with αGal-Cer and were maintained by repeated rounds of stimulation with PHA and IL-2 in the presence of irradiated PBMC and EBV transformed B cells in vitro. Antigen presenting cells were dendritic cells that were derived from bone marrow, stimulated with GMCSF/IL-4 (2 ng/mL and 5 ng/mL, Biosource) and cultured at 2.5×10^5 per 200 μl well for mouse assays, and irradiated allogeneic human PBMC fresh or cultured for 5 days with recombinant human GMCSF/IL-4, ([…] of each cytokine, R&D Systems) (2×10^5 per 200 μl well) for human assays. Cells were washed twice and starved for 6 hours in medium alone before addition to the stimulation experiments.
as §2
(§4) The immunological properties of the above compounds in NKT cells were measured. Human Vα24-Jα18 NKT cells and fresh purified mouse NKT cells were co-cultured with DC pulsed with αGal-Cer or synthetic glycolipid at concentrations ranging from 0.001 to 1000 ng/mL. IFN-γ production was measured at 48 hours as described above.

For the next test, the system named is NKT cells. Kind of test: activation of NKT cells in vitro by synthetic glycolipids. From the text:
Activation of NKT cells may be measured in vitro or ex vivo by any suitable method. An example of an in vitro test permitting evaluation of NKT cell activation is co-culturing NKT cells with antigen presenting cells (APC), such as dendritic cells (DC), in the presence of a bacterial glycolipid activator or putative activator, and subsequently assaying for IFN-γ or other secreted cytokines in the supernatant. Alternatively, activation of NKT cells can be measured ex vivo by administering a bacterial glycolipid antigen to a subject or by administering CD1d^+ antigen presenting cells after ex vivo contact with bacterial glycolipids to a subject. The NKT cells from these subjects can be isolated by, e.g., CD1d-tetramer staining and gating via flow cytometry, and subsequently assayed for surface CD69 (early T-cell activation antigen) and/or intracellular IFN-γ by suitable methods.
Some representative examples of suitable bacterial glycolipids for complexing with CD1d molecules and activating NKT cells are depicted in FIG. 5. […] The remaining compounds depicted in FIG. 5 were rationally designed based on the following features determined to be common among glycolipids capable of activating NKT cells: 1) an alpha-type glycosidic linkage and 2) oxidation at the 6-position on the carbohydrate moiety of the glycolipid.

In test [4] the test system is human Vα24-Jα18 NKT cells. Kind of test: human Vα24-Jα18 NKT cells co-cultured with DC pulsed with synthetic glycolipid. As to conditions: for IFN-γ secretion: DC pulsed with 0.001 to 1000 ng/mL glycolipid, 48 hours. The protocol: as §3, §2, §4
The subject of test [5] is human NKT cells. Kind of test: CD1d-glycolipid tetramer staining of human NKT cells. Here is the method: (§5) At 6 days post stimulation, CD1d-αGal-Cer, CFSE and αB220 (BD Pharmingen) labeling and staining procedures were performed and cells were analyzed by FACS. To generate CD1d-αGal-Cer tetramers, a mixture of 5 μl of αGal-Cer (from 1 mg/ml stock solution in DMSO), 10 μl of PBS 0.5% Tween 20, 10 μl of biotinylated CD1d (1 mg/ml), and 75 μl of PBS was incubated at 37° C. for 1 hr, and lipid-loaded CD1d was purified by centrifugation dialysis and complexed with streptavidin-APC. (Benlagha K. et al., J. Exp. Med. 191, 1895-1903 (2000).) Cells were analyzed on a FACSCalibur (BD Biosciences) with CellQuest software.
(§6) CD1d tetramers were prepared as described in Example 1 using synthetic glycolipids PBS 30, PBS 59 and PBS 50 and αGal-Cer, and were used to stain human NKT cells and mouse spleen cells.

The test system of test [6] is mouse NKT cells. Kind of test: CD1d-glycolipid tetramer staining of mouse spleen cells. The protocol: as §5, §6

As for `CCCCCCCCCCCCCCCCCCCCCCCCCC(=O)N[C@@H](CO[C@H]1O[C@H](CO)[C@H](O)[C@H](O)[C@H]1O)[C@H](O)[C@H](O)CCCCCCCCCCCCCC` [αGal-Cer, α-galactosylceramide], the “IFN-γ secretion by human NKT cells” value in the test on human NKT cells [1] is on record as “CD1d-dependent IFN-γ secretion”. In the test on mouse NKT cells [2], the “IFN-γ secretion by mouse NKT cells” value is “secreted IFN-γ in a CD1d-dependent manner”.

For the compound α-galacturonosylceramide [PBS 59], the NKT cell proliferation entry (in the test with mouse NKT cells [3]; in test [4]) was “strongly activated” each time. In addition, the IFN-γ secretion entry (in the test on mouse NKT cells [3]; in test [4]) was “strongly activated” in each case. In the test on NKT cells, the “activation of NKT cells” value was “found to activate NKT cells”.

With α-glucuronosylceramide [PBS 30], the “human NKT cells stained by CD1d-glycolipid tetramers” value in the test with human NKT cells [5] is “all”. Besides, the “mouse NKT cells stained by CD1d-glycolipid tetramers” value in the test on mouse NKT cells [6] is roughly 25%. Moreover, in the test on mouse NKT cells [3], the NKT cell proliferation entry was “strongly activated” and the IFN-γ secretion entry is on record as “strongly activated”. The “activation of NKT cells” value in the test with NKT cells was “found to activate NKT cells”. Also, in test [4], the NKT cell proliferation entry is recorded as “strongly activated” and the IFN-γ secretion entry was “strongly activated”.

As to “β-glucuronosylceramide [PBS 50, reference compound]”, the NKT cell proliferation entry (in the test with mouse NKT cells [3]; in test [4]) was “did not” in each case. In addition, the IFN-γ secretion entry (with mouse NKT cells [3]; in test [4]) was “did not” in each case. Also, the “activation of NKT cells” value in the test on NKT cells is “do not activate NKT cells”.
